Measurements reported in ChEMBL document CHEMBL3259605, “Improving the Pharmacokinetics of GPR40/FFA1 Full Agonists” (ACS Med Chem Lett, 2014).
Active and inactive are the calls of the source. The calls are words filed in the database; no cut-off is given here.

Columns and labels:
[1] = Intrinsic clearance in rat liver microsomes at 1 uM after 30 mins; type: ADME; details: read-out: CLH
[2] = Oral bioavailability in rat at 2 mg/kg; type: ADME, organism-based; details: in vivo
[3] = molecular target: T1, Free fatty acid receptor 1 (Homo sapiens, UniProt O14842); experiment: Agonist activity at GPR40 (unknown origin) expressed in CHO cells assessed as luminescence for 20 seconds interval by aequorin assay in presence of 0.01% human serum albumin relative to AM-1638; type: cell-based
T1 sequence (O14842 whole entry): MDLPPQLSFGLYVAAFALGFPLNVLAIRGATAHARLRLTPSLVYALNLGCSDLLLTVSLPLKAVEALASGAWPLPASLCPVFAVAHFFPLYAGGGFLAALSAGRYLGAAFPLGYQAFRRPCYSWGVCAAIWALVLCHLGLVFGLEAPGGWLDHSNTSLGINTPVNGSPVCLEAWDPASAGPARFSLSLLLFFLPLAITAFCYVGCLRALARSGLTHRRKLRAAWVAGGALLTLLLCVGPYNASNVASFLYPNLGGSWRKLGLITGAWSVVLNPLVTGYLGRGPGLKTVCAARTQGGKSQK

[4] = Intrinsic clearance in human liver microsomes at 1 uM after 30 mins; type: ADME; details: read-out: CLH
[5] = Clearance in rat at 0.5 mg/kg, iv; type: ADME, organism-based; set-up: dose 0.5 mg/kg, route intravenous; details: in vivo
[6] = Half life in rat at 0.5 mg/kg, iv; type: ADME, organism-based; set-up: dose 0.5 mg/kg, route intravenous; details: in vivo
[7] = molecular target: T1, Free fatty acid receptor 1; experiment: Agonist activity at GPR40 (unknown origin) expressed in CHO cells assessed as luminescence for 20 seconds interval by aequorin assay in presence of 0.01% human serum albumin; type: cell-based
[8] = molecular target: T1, Free fatty acid receptor 1; experiment: Agonist activity at GPR40 (unknown origin) expressed in mouse A9 cells assessed as inositol phosphate accumulation using [myo-3H]inositol after 1 hr by scintillation counting in presence of 0.3% human serum albumin; type: functional, cell-based
[9] = molecular target: T1, Free fatty acid receptor 1; experiment: Agonist activity at GPR40 (unknown origin) expressed in mouse A9 cells assessed as inositol phosphate accumulation using [myo-3H]inositol after 1 hr by scintillation counting in presence of 0.3% human serum albumin relative to AM-1638; type: functional, cell-based
Mus musculus [10] = experiment: Induction of GLP-1 release in po dosed high fat fed C57/Bl6 mouse streptozotocin-induced type 2 diabetic model; type: functional, organism-based
Mus musculus [11] = experiment: Antidiabetic activity in po dosed high fat fed C57/Bl6 mouse streptozotocin-induced type 2 diabetic model assessed as reduction of blood glucose level up to 120 mins by oral glucose tolerance test; type: functional, organism-based
Mus musculus [12] = experiment: Antidiabetic activity in high fat fed C57/Bl6 mouse streptozotocin-induced type 2 diabetic model assessed as reduction of blood glucose level at 30 mg/kg, po up to 120 mins by oral glucose tolerance test; type: functional, organism-based; set-up: dose 30 mg/kg
Mus musculus [13] = experiment: Antidiabetic activity in diet-induced obesity BDF1 mouse model assessed as reduction of blood glucose level at 30 mg/kg, po up to 120 mins by oral glucose tolerance test; type: functional, organism-based; set-up: dose 30 mg/kg
Mus musculus [14] = experiment: Antidiabetic activity in high fat fed C57/Bl6 mouse streptozotocin-induced type 2 diabetic model assessed as reduction of blood glucose level at 60 mg/kg, po up to 120 mins by oral glucose tolerance test; type: functional, organism-based; set-up: dose 60 mg/kg
Mus musculus [15] = experiment: Antidiabetic activity in diet-induced obesity BDF1 mouse model assessed as reduction of blood glucose level at 3 mg/kg, po up to 120 mins by oral glucose tolerance test; type: functional, organism-based; set-up: dose 3 mg/kg
Mus musculus [16] = experiment: Antidiabetic activity in diet-induced obesity BDF1 mouse model assessed as reduction of blood glucose level at 0.3 mg/kg, po up to 120 mins by oral glucose tolerance test; type: functional, organism-based; set-up: dose 0.3 mg/kg
Mus musculus [17] = experiment: Antidiabetic activity in diet-induced obesity BDF1 mouse model assessed as reduction of blood glucose level at 3 to 10 mg/kg, po up to 120 mins by oral glucose tolerance test; type: functional, organism-based

SMILES | bioavailability [2] [%] | Emax [3] [%] | clearance [5] [mL/min/kg] | half-life [6] [min] | EC50 [7] [nM] | EC50 [8] [nM] | Emax [9] [%] | other results
COc1cc(-c2ccc(COc3ccc4c(c3)[C@@](C)(CC(=O)O)CC4)cc2[C@H](OC)C(C)(C)C)c(F)cn1 | 21 | 106 | 4.17 | 240 | 235 | 6.7 | 101 | –
COc1ccc(F)c(-c2ccc(COc3cccc([C@@H](CC(=O)O)C4CC4)c3)cc2[C@@H]2OCCCC2(C)C)c1 | – | 96 | – | – | 227 | – | – | –
COc1ccc(F)c(-c2ccc(COc3cccc([C@@H](CC(=O)O)C4CC4)c3)cc2[C@H](OC)C(C)(C)C)c1 | – | 105 | 4.67 | 210 | 147 | – | – | –
COc1cc(-c2ccc(COc3cc([C@H](C)CC(=O)O)ccn3)cc2[C@@H]2CCCC2(C)C)c(F)cn1 | – | 136 | – | – | 281 | 19 | 100 | –
COc1cc(-c2ccc(COc3cc4c(cn3)CC[C@]43C[C@H]3C(=O)O)cc2[C@H](OC)C(C)(C)C)c(F)cn1 | – | 85 | 28.3 | 72 | 250 | 370 | 122 | –
COc1ccc(F)c(-c2ccc(COc3cccc([C@@H](CC(=O)O)C4CC4)c3)cc2C2=CCCC2(C)C)c1 | – | – | – | – | – | – | – | Activity (Mus musculus [14]): Active
COc1ccc(F)c(-c2ccc(COc3cccc([C@@H](CC(=O)O)C4CC4)c3)cc2[C@@H](OC)C(C)(C)C)c1 | – | 98 | – | – | 1410 | – | – | –
CC[C@H](CC(=O)O)c1ccnc(OCc2ccc(-c3cc(OC)ncc3F)c([C@@H]3CCCC3(C)C)c2)c1 | 83 | 99 | 2.5 | 492 | 150 | 6 | 102 | –
COc1cc(-c2ccc(COc3cc4c(cn3)CC[C@]43C[C@H]3C(=O)O)cc2[C@@H]2CCCC2(C)C)c(F)cn1 | 58 | 98 | 4.33 | 216 | 249 | 22 | 97 | –
COc1cc(-c2ccc(COc3ccc4c(c3)[C@@](C)(CC(=O)O)CC4)cc2[C@@H]2CCCC2(C)C)c(F)cn1 | 10 | 100 | 7.5 | 222 | 128 | 3.4 | 100 | –
CCC[C@H](CC(=O)O)c1cccc(OCc2ccc(-c3cccc(OC)c3)c(C(C)(C)C)c2)c1 | – | 94 | – | – | 370 | – | – | –
CCC[C@H](CC(=O)O)c1cccc(OCc2ccc(-c3cncc(OC)c3)c(C(C)(C)C)c2)c1 | – | 72 | – | – | 30000 | – | – | –
COc1cc(-c2ccc(COc3cc([C@@H](CC(=O)O)C4CC4)ccn3)cc2[C@H](OC)C(C)(C)C)c(F)cn1 | 54 | 94 | 1.02 | 486 | 162 | 0.6 | 100 | Activity (Mus musculus [15]): Active; Activity (Mus musculus [16]): Active; Activity (Mus musculus [17]): Active
CCC[C@H](CC(=O)O)c1cccc(OCc2ccc(-c3cccc(OC)n3)c(C(C)(C)C)c2)c1 | – | 61 | – | – | 3700 | – | – | –

More lines, main results first:

bioavailability [2] [%] | Emax [3] [%] | clearance [5] [mL/min/kg] | half-life [6] [min] | EC50 [7] [nM] | EC50 [8] [nM] | Emax [9] [%] | SMILES | other results
34 | 101 | 11.7 | 120 | 76 | – | – | COc1ccc(F)c(-c2ccc(COc3cccc([C@@H](CC(=O)O)C4CC4)c3)cc2[C@@H]2CCCC2(C)C)c1 | microsomal CLint at 1 µM [1]: 219 µL/min/mg; microsomal CLint at 1 µM [4]: 52 µL/min/mg
34 | 95 | 1.67 | 210 | 68 | – | – | COc1cc(-c2ccc(COc3cccc([C@@H](CC(=O)O)C4CC4)c3)cc2[C@@H]2CCCC2(C)C)c(F)cn1 | microsomal CLint at 1 µM [1]: 67 µL/min/mg; microsomal CLint at 1 µM [4]: 21 µL/min/mg
– | 100 | – | – | 105 | – | – | COc1ccc(F)c(-c2ccc(COc3cccc([C@@H](CC(=O)O)C4CC4)c3)cc2[C@H](F)C(C)(C)C)c1 | –
98 | 102 | 2.83 | 276 | 93 | – | – | COc1cc(-c2ccc(COc3cccc([C@@H](CC(=O)O)C4CC4)c3F)cc2[C@@H]2CCCC2(C)C)c(F)cn1 | microsomal CLint at 1 µM [1]: 52 µL/min/mg; Activity (Mus musculus [10]): Dose-dependent effect; Activity (Mus musculus [11]): Dose-dependent effect; Activity (Mus musculus [12]): Active; microsomal CLint at 1 µM [4]: 15 µL/min/mg; Activity (Mus musculus [13]): Active
– | 101 | 5.33 | 234 | 114 | – | – | CCO[C@@H](c1cc(COc2cccc([C@@H](CC(=O)O)C3CC3)c2)ccc1-c1cc(OC)ccc1F)C(C)(C)C | –
37 | 110 | 1.43 | 582 | 108 | 1.7 | 100 | COc1cc(-c2ccc(COc3cc([C@@H](CC(=O)O)C4CC4)ccn3)cc2[C@@H]2CCCC2(C)C)c(F)cn1 | –
– | 102 | 20 | 72 | 88 | – | – | COc1ccc(F)c(-c2ccc(COc3cccc([C@@H](CC(=O)O)C4CC4)c3)cc2CC(C)(C)C)c1 | –
– | 100 | – | – | 120 | – | – | COc1cc(-c2ccc(COc3cccc([C@@H](CC(=O)O)C4CC4)c3)cc2C2=CCCC2(C)C)c(F)cn1 | –
